How the values were obtained:
benzodiazepine receptors [1] = assay: in vivo binding to benzodiazepine receptors, Goeders et al (Test 2); conditions: IP
Protocol: Measuring of in vivo binding to benzodiazepine receptors was carried out according to the method described by Goeders et al, Life Sciences (1985), Vol. 37, p. 345.

benzodiazepine receptors [2] = assay: Affinity for benzodiazepine receptors, displacement of ^3 H-labelled flunitrazepam in membranes from the rear portion of the brain in rats (Test 1); conditions: 0.6×10^-9 mol of ^3 H-labelled flunitrazepam; membranes from the rear portion of rat brain; read-out: Test 1: concentration which inhibited 50% of the specific binding of ^3 H-labelled flunitrazepam (IC50)
Protocol: The affinity of the active ingredients for the benzodiazepine receptors was measured using a radioactively labelled (^3 H) compound flunitrazepam,and a modified version of the method of Squires and Braestrup (Nature, 1977, Vol. 266, p. 732). The values given in Table 2 below are the concentration (mol×10^-9) of the compound under test which inhibited 50% of the specific binding of 0.6×10^-9 mol of ^3 H-labelled flunitrazepam in preparations of membranes from the rear portion of the brain in rats (IC50 values).

Row | Compound | Test 2 ED50 (benzodiazepine receptors [1]) [mg/kg] | IC50 (benzodiazepine receptors [2]) [µM]
1 | CN1Cc2c(C(=O)C3CC3)ncn2-c2cccc(C3CC3)c2C1=O [Example 1, 7-cyclopropyl-5,6-dihydro-5-methyl-6-oxo-4H-imidazo-[1,5-a][1,4]-benzodiazepin-3-yl cyclopropyl methanone] | 0.15 | 0.036
2 | CN1Cc2c(C(=O)C3CC3)ncn2-c2ccnc(C3CC3)c2C1=O [Example 2, 7-cyclopropyl-5,6-dihydro-5-methyl-6-oxo-4H-imidazo-[1,5-a]-pyrido [3,4-f]diazepin-3-yl cyclopropyl methanone] | 0.08 | 0.026
3 | CN1Cc2c(C(=O)C3CC3)ncn2-c2ccncc2C1=O [Example 3, 5,6-dihydro-5-methyl-6-oxo-4H-imidazo [1,5-a]-pyrido-[3,4-f][1,4]-diazepin-3-yl cyclopropylmethanone] | 0.13 | 0.105

— patent US5247079A, “7-cyclopropyl-imidazodiazepines” (Roussel Uclaf, priority 1990, dated 1993)
